From publication PMC4466647, “Inhibition of non-small cell lung cancer (NSCLC) growth by a novel small molecular inhibitor of EGFR” (Oncotarget, 2015) come the findings set out here.

SMILES strings stand for the structures.

The target in the assay is EGFR (Homo sapiens, UniProt P00533). Put plainly: in vitro EGFR kinase assay (Promega Kinase-Glo luminescence, […] ATP). Type of assay: biochemical.
Sequence of EGFR (P00533 25-1210): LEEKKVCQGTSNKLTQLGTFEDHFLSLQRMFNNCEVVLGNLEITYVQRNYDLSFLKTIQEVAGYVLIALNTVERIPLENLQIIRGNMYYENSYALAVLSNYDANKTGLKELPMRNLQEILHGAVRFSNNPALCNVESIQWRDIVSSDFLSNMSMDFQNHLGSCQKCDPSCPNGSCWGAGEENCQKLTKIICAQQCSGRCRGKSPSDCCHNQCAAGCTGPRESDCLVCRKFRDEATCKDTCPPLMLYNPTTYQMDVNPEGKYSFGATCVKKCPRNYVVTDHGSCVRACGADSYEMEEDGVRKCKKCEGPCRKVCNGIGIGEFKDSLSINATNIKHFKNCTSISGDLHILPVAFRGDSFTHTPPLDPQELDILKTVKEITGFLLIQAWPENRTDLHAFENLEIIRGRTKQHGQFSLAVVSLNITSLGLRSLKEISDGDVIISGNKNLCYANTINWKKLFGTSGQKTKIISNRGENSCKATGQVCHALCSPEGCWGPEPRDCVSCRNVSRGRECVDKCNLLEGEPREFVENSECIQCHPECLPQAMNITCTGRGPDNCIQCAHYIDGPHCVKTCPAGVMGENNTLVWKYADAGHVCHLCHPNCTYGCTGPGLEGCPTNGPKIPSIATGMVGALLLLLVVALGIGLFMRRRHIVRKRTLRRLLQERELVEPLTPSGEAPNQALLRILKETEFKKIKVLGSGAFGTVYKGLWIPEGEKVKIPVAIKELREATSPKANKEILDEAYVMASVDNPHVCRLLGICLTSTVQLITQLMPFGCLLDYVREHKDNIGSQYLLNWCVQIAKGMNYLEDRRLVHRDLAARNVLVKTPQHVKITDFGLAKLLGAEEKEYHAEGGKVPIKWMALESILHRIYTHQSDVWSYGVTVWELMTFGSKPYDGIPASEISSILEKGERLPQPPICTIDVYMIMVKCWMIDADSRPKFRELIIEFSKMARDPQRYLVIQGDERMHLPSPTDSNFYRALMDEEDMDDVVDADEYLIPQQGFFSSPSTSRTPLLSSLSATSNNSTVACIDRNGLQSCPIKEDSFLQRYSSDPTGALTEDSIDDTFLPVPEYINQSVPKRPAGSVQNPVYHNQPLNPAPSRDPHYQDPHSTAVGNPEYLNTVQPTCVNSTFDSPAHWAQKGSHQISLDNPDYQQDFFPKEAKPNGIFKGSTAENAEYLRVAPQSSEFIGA

Compound `O=C(Cc1ccccc1)N1CCc2c([nH]c3ccc(F)cc23)C1` [compound 308, WB-308] returned an IC50 of roughly 43 nM.

By IC50 is commonly meant the concentration at which inhibition is half-maximal.
